Data from PubChem BioAssay (NCI).
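A five-concentration, 48-hour dose response in 96-well plates underlies each endpoint, interpolated linearly between surrounding concentrations. Abbreviation: GI50, concentration required for 50% inhibition of growth. The concentration for full growth arrest is given as TGI.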

What was measured:
Assay in all cases: inhibition of tumour cell growth, NCI panel, 48 h
786-0 renal = test system: 786-0 renal
HOP-92 NSCLC = test system: HOP-92 NSCLC
OVCAR-5 ovarian = test system: OVCAR-5 ovarian
SK-MEL-5 melanoma = test system: SK-MEL-5 melanoma
UACC-62 melanoma = test system: UACC-62 melanoma
COLO 205 colon = test system: COLO 205 colon
MCF7 breast = test system: MCF7 breast
RPMI-8226 leukemia = test system: RPMI-8226 leukemia
DLD-1 colon = test system: DLD-1 colon
KM20L2 colon = test system: KM20L2 colon

Compound	TGI (786-0 renal) [µM]	TGI (HOP-92 NSCLC) [µM]	TGI (OVCAR-5 ovarian) [µM]	TGI (SK-MEL-5 melanoma) [µM]	TGI (UACC-62 melanoma) [µM]	TGI (COLO 205 colon) [µM]	TGI (MCF7 breast) [µM]	TGI (RPMI-8226 leukemia) [µM]	GI50 (786-0 renal) [µM]	GI50 (HOP-92 NSCLC) [µM]	GI50 (OVCAR-5 ovarian) [µM]	GI50 (SK-MEL-5 melanoma) [µM]	GI50 (UACC-62 melanoma) [µM]	GI50 (COLO 205 colon) [µM]	GI50 (MCF7 breast) [µM]	GI50 (RPMI-8226 leukemia) [µM]	TGI (DLD-1 colon) [µM]	TGI (KM20L2 colon) [µM]	GI50 (DLD-1 colon) [µM]	GI50 (KM20L2 colon) [µM]
COC(=O)C1=COC2OC3C(C(C)O)C(=O)OC34C=CC1C24 (centres undefined)	> 100	> 100	> 100	> 100	79.1	> 100	> 100	90.8	–	–	–	–	–	–	–	–	–	–	–	–
N#CC(C#N)=CNCCN1CCN(C=C(C#N)C#N)CC1	> 100	> 100	> 100	> 100	> 100	> 100	> 100	> 100	–	–	–	–	–	–	–	–	–	–	–	–
CNS(=O)(=O)OCC1OC(n2cnc3cncnc32)C(O)C1O (centres undefined)	> 100	> 100	> 100	> 100	> 100	> 100	> 100	> 100	> 100	> 100	> 100	> 100	> 100	> 100	> 100	> 100	–	–	–	–
Oc1c(C(Nc2ccccn2)c2cccc(Oc3ccccc3)c2)ccc2cccnc12 (centres undefined)	11.1	23.7	12.6	2.16	1.29	14.7	13.9	84	0.657	0.522	0.515	0.388	0.31	0.492	0.416	0.6	–	–	–	–
CC(C)(C)N/N=C(\C(=O)Nc1cccc(Cl)c1)C1C(=O)Nc2ccccc2S1=O (centres undefined)	> 100	> 100	–	> 100	> 100	> 100	–	–	–	–	–	–	–	–	–	–	> 100	> 100	–	–
CC1CCCC(C(=O)CC2CC(=O)NC(=O)C2)C1=O (centres undefined)	> 100	> 100	> 100	> 100	> 100	> 100	> 100	> 100	–	–	–	–	–	–	–	–	–	–	–	–
O=C(Cc1nc2ccc(C(=O)c3ccccc3)cc2[nH]c1=O)C(=O)Nc1nc2ccccc2[nH]1	> 100	91.8	–	> 100	> 100	> 100	–	–	–	–	–	–	–	–	–	–	–	> 100	–	–
ClCCCSSCCCCl	> 100	> 72.8	> 100	> 100	> 100	> 72.5	97.6	> 100	–	–	–	–	–	–	–	–	–	–	–	–
O=C1C(=c2ccc(=C3C(=O)c4ccc([N+](=O)[O-])cc4[N+]3=O)cc2)N([O-])c2cc([N+](=O)[O-])ccc21	> 100	> 100	> 100	> 100	–	> 100	–	–	–	> 100	> 100	> 100	–	> 100	–	–	> 100	> 100	> 100	> 100
COc1cc2c3c(n(CCCN4CCNCC4)c(=O)c2cc1OC)-c1cc2c(cc1C3=O)OCO2	0.429	1.28	6.77	10.5	7.61	14	7.66	1.63	0.0513	0.041	1.75	1.33	0.997	3.06	0.0119	0.16	–	–	–	–
O=C1Nc2ccccc2/C1=C\c1c(-c2ccccc2)nc2sccn12	9.23	7.87	11.9	7.89	9.72	16.4	22.7	3.74	2.39	2.14	2.7	2.2	0.798	2.23	2.95	0.909	–	–	–	–
CCn1c(-c2nonc2N)nc2c(C#CC(C)(C)O)ncc(OC3CCNCC3)c21	> 25	> 25	> 25	> 25	> 25	> 21.9	> 22.5	> 25	6.79	> 25	> 25	> 20.1	15.8	4.89	3.93	> 25	–	–	–	–
COc1cc2c(NCCCCCO)ncnc2c(OC)c1OC	> 100	> 100	> 100	> 100	> 100	> 100	> 100	> 100	–	–	–	–	–	–	–	–	–	–	–	–
Fc1cc(F)c(F)c(S)c1F	> 100	> 100	> 100	> 100	> 100	> 100	> 100	> 100	–	–	–	–	–	–	–	–	–	–	–	–
